US11220504B2, “Pyrrolo[3,2-d] pyrimidine derivatives for the treatment of viral infections and other diseases” (JANSSEN SCIENCES IRELAND UNLIMITED COMPANY, priority 2012, dated 2022)

Assays:
human TLR7 = target: T1, human TLR7 (Homo sapiens, UniProt Q9NYK1); test: TLR7 cellular reporter assay (HEK293, NFκB-luc); format: cell-based; settings: HEK293 cells transfected with CMV-TLR7 and NFκB-luc, 6 hours incubation; lowest effective concentration
T1 construct: expressed in transfected cells; host or cells: HEK293 cells, transient transfection with CMV-TLR7 plasmid and NFκB-luc plasmid
T1 sequence (Q9NYK1 27-1049): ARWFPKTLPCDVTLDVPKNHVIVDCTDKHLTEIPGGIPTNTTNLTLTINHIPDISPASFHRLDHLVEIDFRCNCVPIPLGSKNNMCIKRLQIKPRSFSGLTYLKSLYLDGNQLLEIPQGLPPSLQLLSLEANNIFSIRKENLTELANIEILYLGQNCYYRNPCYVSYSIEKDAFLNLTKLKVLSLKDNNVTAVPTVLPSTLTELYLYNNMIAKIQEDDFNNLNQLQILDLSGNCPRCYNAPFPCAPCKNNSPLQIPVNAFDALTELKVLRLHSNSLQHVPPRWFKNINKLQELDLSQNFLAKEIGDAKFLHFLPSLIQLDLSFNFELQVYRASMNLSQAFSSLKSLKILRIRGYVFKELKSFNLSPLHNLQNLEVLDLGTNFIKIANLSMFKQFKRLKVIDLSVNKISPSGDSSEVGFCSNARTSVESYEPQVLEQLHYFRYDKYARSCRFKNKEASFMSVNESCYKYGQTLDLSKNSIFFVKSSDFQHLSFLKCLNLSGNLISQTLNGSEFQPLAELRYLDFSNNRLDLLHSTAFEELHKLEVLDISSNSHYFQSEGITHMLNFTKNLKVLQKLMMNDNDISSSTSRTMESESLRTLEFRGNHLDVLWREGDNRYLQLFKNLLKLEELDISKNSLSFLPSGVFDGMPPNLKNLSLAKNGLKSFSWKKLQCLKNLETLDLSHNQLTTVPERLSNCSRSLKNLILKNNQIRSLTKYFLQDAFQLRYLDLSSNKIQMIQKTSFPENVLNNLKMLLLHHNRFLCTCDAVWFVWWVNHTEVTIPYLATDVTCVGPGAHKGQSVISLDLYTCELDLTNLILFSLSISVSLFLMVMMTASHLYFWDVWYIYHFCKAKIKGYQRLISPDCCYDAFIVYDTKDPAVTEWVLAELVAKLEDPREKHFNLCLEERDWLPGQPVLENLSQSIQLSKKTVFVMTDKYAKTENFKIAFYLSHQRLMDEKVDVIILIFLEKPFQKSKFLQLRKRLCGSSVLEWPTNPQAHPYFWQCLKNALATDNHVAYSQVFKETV
Protocol: (§1) The ability of compounds to activate human TLR7 and/or TLR8 was assessed in a cellular reporter assay using HEK293 cells transiently transfected with a TLR7 or TLR8 expression vector and NFκB-luc reporter construct.
(§2) Briefly, HEK293 cells were grown in culture medium (DMEM supplemented with 10% FCS and 2 mM Glutamine). […] Thirty microliters of cells were then dispensed into each well in 384-well plates, where 10 μL of compound in 4% DMSO was already present. Following 6 hours incubation at 37° C., 5% CO2, the luciferase activity was determined by adding 15 μL of Steady Lite Plus substrate (Perkin Elmer) to each well and readout performed on a ViewLux ultraHTS microplate imager (Perkin Elmer). Dose response curves were generated from measurements performed in quadruplicates.

[1] = tested on: interferon-stimulated responsive elements (ISRE); test: Activation of ISRE promoter elements by conditioned media from PBMC (HEK-ISREluc); format: cell-based, human; settings: Homo sapiens; conditioned media from PBMC transferred to HEK-ISREluc cells, 24 hours; lowest effective concentration; read-out: PBMC LEC
Protocol: The potential of compounds to induce IFN-I was also evaluated by measuring the activation of interferon-stimulated responsive elements (ISRE) by conditioned media from PBMC. The ISRE element of sequence […] (SEQ. ID NO:1) is highly responsive to the STAT1-STAT2-IRF 9 transcription factor, activated upon binding of IFN-I to their receptor IFNAR (Clontech, PT3372-5W). […] A HEK293 cell line stably transfected with pISRE-Luc (HEK-ISREluc) was established to profile of the conditioned PBMC cell culture media.
Briefly, PBMCs were prepared from buffy coats of at least two donors using a standard Ficoll centrifugation protocol. Isolated PBMCs were resuspended in RPMI medium supplemented with 10% human AB serum and 2×10^5 cells/well were dispensed into 384-well plates containing compounds (70 μL total volume). After overnight incubation, 10 μL of supernatant was transferred to 384-well plates containing 5×10^3 HEK-ISREluc cells/well in 30 μL (plated the day before). Following 24 hours of incubation, activation of the ISRE elements was measured by assaying luciferase activity using 40 μL/well Steady Lite Plus substrate (Perkin Elmer) and measured with ViewLux ultraHTS microplate imager (Perkin Elmer). The stimulating activity of each compound on the HEK-ISREluc cells was reported as LEC value, defined as the compound concentration applied to the PBMCs resulting in a luciferase activity at least two fold above the standard deviation of the assay. The LEC in turn indicates the degree of ISRE activation on transfer of a defined amount of PBMC culture medium. Recombinant interferon α-2a (Roferon-A) was used as a standard control compound.

human TLR8 = target: T2, human TLR8 (Homo sapiens, UniProt Q9NR97); test: TLR8 cellular reporter assay (HEK293, NFκB-luc); format: cell-based; settings: HEK293 cells transfected with CMV-TLR8 and NFκB-luc, 6 hours incubation; lowest effective concentration
T2 construct: expressed in transfected cells; host or cells: HEK293 cells, transient transfection with TLR8 plasmid and NFκB-luc plasmid
T2 sequence (Q9NR97 27-1041): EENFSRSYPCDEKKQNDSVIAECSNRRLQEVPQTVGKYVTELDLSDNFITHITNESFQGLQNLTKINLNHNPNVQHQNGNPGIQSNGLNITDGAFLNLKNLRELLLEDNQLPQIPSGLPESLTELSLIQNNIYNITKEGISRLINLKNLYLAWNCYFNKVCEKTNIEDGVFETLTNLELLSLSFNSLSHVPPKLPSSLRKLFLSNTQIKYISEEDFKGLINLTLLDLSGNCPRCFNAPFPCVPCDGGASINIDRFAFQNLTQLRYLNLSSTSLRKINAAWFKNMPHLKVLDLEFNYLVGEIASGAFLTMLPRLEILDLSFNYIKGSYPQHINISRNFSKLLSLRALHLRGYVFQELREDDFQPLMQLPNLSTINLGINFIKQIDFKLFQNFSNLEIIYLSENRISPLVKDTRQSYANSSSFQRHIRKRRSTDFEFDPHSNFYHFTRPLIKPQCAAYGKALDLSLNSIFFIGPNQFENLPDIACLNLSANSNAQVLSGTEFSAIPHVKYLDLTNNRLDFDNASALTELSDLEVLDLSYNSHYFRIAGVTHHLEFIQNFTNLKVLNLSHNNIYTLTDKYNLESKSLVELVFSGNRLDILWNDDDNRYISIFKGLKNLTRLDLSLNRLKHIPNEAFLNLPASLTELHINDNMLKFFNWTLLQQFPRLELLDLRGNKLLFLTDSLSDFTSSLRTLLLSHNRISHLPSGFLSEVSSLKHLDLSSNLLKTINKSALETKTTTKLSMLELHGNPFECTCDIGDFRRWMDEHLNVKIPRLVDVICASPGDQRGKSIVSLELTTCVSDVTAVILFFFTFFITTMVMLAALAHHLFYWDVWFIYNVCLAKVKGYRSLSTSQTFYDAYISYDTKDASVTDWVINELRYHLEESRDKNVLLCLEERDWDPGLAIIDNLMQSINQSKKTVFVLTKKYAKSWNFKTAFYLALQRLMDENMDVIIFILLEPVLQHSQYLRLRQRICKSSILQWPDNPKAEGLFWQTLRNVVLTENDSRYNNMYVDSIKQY
Protocol: as §1, §2

| Structure (SMILES) | TLR7 LEC (human TLR7) [µM] | TLR8 LEC (human TLR8) [µM] | minimal effective concentration [1] [µM] |
| --- | --- | --- | --- |
| CCCC[C@@H](CCO)Nc1nc(N)nc2ccn(Cc3cscn3)c12 [Compound 88] | 0.01 | 2.46 | 0.0006 |
| CCC[C@@H](CCO)Nc1nc(N)nc2ccn(Cc3ccccc3OC)c12 [Compound 80] | <0.0006 | 0.689 | < 0.0004 |
| Cc1cc(CNc2nc(N)nc3ccn(Cc4ccncc4)c23)no1 [Compound 112] | 0.741 | >25 | 0.209 |
| CCCC[C@@H](CO)Nc1nc(N)nc2ccn(Cc3c(OC)cccc3OC)c12 [Compound 101] | <0.01 | 0.08 | < 0.001 |
| CCCC[C@@H](CCO)Nc1nc(N)nc2ccn(Cc3ccccc3F)c12 [Compound 76] | 0.01 | 4.09 | 0.007 |
| CCCCCNc1nc(N)nc2ccn(Cc3ccccc3)c12 [Compound 29] | 0.15 | >25 | 0.04 |
| COCCn1ccc2nc(N)nc(N[C@@H](C)c3ccccn3)c21 (single isomer, unassigned) [Compound 152] | 0.73 | >25 | 0.142 |
| CCCCNc1nc(N)nc2ccn(Cc3ccccc3Cl)c12 [Compound 13] | 0.80 | >25 | 0.89 |
| CCC[C@@H](CCO)Nc1nc(N)nc2ccn(CC(C)C)c12 [Compound 30] | 0.16 | 0.67 | 0.05 |
| CCCCNc1nc(N)nc2c(C)cn(Cc3ccccc3)c12 [Compound 54] | 1.68 | >25 | 0.9 |
| Nc1nc(NCc2ccccn2)c2c(ccn2Cc2ccccc2)n1 [Compound 61] | 1.01 | >25 | 1.95 |
| CC(C)CNc1nc(N)nc2ccn(Cc3ccccc3)c12 [Compound 32] | 0.91 | >25 | 0.52 |
| Nc1nc(NCCCO)c2c(ccn2Cc2ccccc2)n1 [Compound 36] | 1.06 | >25 | 0.59 |
| CCCCNc1nc(N)nc2ccn(Cc3cccc4c3OCC4)c12 [Compound 149] | 0.02 | >25 | 0.006 |
| CCCC[C@@H](CCO)Nc1nc(N)nc2ccn(CC3CCCO3)c12 (stereo partly drawn) [Compound 91] | 0.05 | 2.17 | 0.02 |
| CCCC[C@@H](CCO)Nc1nc(N)nc2c(F)cn(Cc3ccccc3)c12 [Compound 95] | 0.01 | 3.26 | 0.007 |

Second part, led by results:

| TLR7 LEC (human TLR7) [µM] | TLR8 LEC (human TLR8) [µM] | Structure (SMILES) | minimal effective concentration [1] [µM] |
| --- | --- | --- | --- |
| <0.01 | 0.04 | CCC[C@@H](CO)Nc1nc(N)nc2ccn(Cc3c(OC)cccc3OC)c12 [Compound 100] | < 0.001 |
| 1.61 | >25 | COCCn1ccc2nc(N)nc(NCc3ccc(C)cn3)c21 [Compound 202] | 0.58 |
| 0.02 | >25 | COc1ncccc1Cn1ccc2nc(N)nc(NCc3cc(C)on3)c21 [Compound 179] | 0.003 |
| 0.06 | 20.2 | Cc1cc(CNc2nc(N)nc3ccn(Cc4cc(C)on4)c23)no1 [Compound 181] | 0.015 |
| 6.94 | 22 | COC[C@H](C)Nc1nc(N)nc2ccn(Cc3ccccn3)c12 [Compound 211] | 0.47 |
| 0.89 | >25 | CCCCNc1nc(N)nc2ccn(Cc3ccc(F)c(Cl)c3)c12 [Compound 16] | 0.6 |
| 0.04 | >25 | COc1c(C)cnc(Cn2ccc3nc(N)nc(NCc4cc(C)on4)c32)c1C [Compound 169] | 0.011 |
| 0.342 | >25 | COCCn1ccc2nc(N)nc(NCc3cc(C)on3)c21 [Compound 128] | 0.062 |
| 0.827 | >25 | COCCn1ccc2nc(N)nc(NC(C)c3ccccn3)c21 (stereo not drawn) [Compound 105] | 0.194 |
| 0.026 | >25 | COc1cnccc1Cn1ccc2nc(N)nc(NCc3cc(C)on3)c21 [Compound 123] | 0.002 |
| 4.49 | >25 | COCCNc1nc(N)nc2ccn(Cc3ncc(C)c(OC)c3C)c12 [Compound 147] | 2.02 |
